Results published in patent US20260000668A1 (priority 2021, published 2026).
Values after ≈ are worked out from the molar mass of the structure shown. Read-outs that look alike come from different tables or passages of the source.

Columns and labels:
[1] = system: SARS-Related Coronavirus 2 Isolate USA-WA1/2020; assay type: cell-based, SARS-COV-2; details: treatment 2 hours pre-infection; for Mean Log10 Reduction: Vero E6, MOI=0.1, 2 days, vs untreated control

SMILES	Mean Log10 Reduction ([1]; 10 μM) [Log10]	solubility (physchem; organic solvent or mixture) [mg/mL]	Mean Log10 Reduction ([1]; 1 μM) [Log10]	Mean Log10 Reduction ([1]; 2 μM) [Log10]	Mean Log10 Reduction ([1]; 4 μM) [Log10]	Mean Log10 Reduction ([1]; 8 μM) [Log10]	antiviral activity against SARS-COV-2 ([1]; 1-8 μM, Vero E6)	solubility (physchem; water) [mg/mL]
CCC(CC)COC(=O)[C@H](C)N[P@](=O)(OC[C@H]1O[C@@](C#N)(c2ccc3c(N)ncnn23)[C@H](O)[C@@H]1O)Oc1ccccc1 [Remdesivir, reference compound]	5.72	100 (≈ 166 mM)	–	–	–	–	–	–
CN1CCN(CCCc2ccc(C(c3ccccc3)C34CC5CC(CC(C5)C3)C4)cc2)CC1 (stereo not drawn) [AV1066, 1-Methyl-4-[3-[4-(phenyltricyclo[3.3.1.1^3,7]dec-1-ylmethyl)phenyl]propyl]piperazine]	–	21 (≈ 47.4 mM)	0.00	0.10	1.33	4.89	exhibited antiviral activity against SARS-COV-2 in a dose dependent manner	4 (≈ 9.04 mM)
